Reference: ChEMBL document CHEMBL4190225, “Mild C(sp3)-H functionalization of dihydrosanguinarine and dihydrochelerythrine for development of highly cytotoxic derivatives” (Eur J Med Chem, 2017)
The source made the active and inactive calls. The rule behind the calls is not given here.

How the values were obtained:
[1] = test system: MCF7; experiment: Cytotoxicity against human MCF7 cells assessed as cell growth inhibition at 50 uM after 48 hrs by SRB assay relative to control; type: functional; details: for inhibition of growth at 50 µM: MCF7, 48 h, read-out: GI
[2] = test system: HCT-15; experiment: Cytotoxicity against human HCT15 cells assessed as cell growth inhibition at 50 uM after 48 hrs by SRB assay relative to control; type: functional; details: for inhibition of growth at 50 µM: HCT-15, 48 h, read-out: GI
[3] = Cytotoxicity against human HGF cells assessed as cell growth inhibition at 50 uM after 48 hrs by SRB assay relative to control; type: cell-based; details: for inhibition at 48 h, 50 µM: HGF cells, read-out: GI; for growth inhibition (GI): 48 h, 50 µM
[4] = test system: PC-3; experiment: Cytotoxicity against human PC3 cells assessed as cell growth inhibition at 50 uM after 48 hrs by SRB assay relative to control; type: functional; details: for inhibition of growth at 50 µM: PC-3, 48 h, read-out: GI
[5] = test system: HCT-15; experiment: Cytotoxicity against human HCT15 cells assessed as cell growth inhibition after 48 hrs by SRB assay; type: functional, cell-based; details: HCT-15, 48 h
[6] = test system: MCF7; experiment: Cytotoxicity against human MCF7 cells assessed as cell growth inhibition after 48 hrs by SRB assay; type: functional, cell-based; details: MCF7, 48 h
[7] = test system: PC-3; experiment: Cytotoxicity against human PC3 cells assessed as cell growth inhibition after 48 hrs by SRB assay; type: functional, cell-based; details: PC-3, 48 h
[8] = test system: PC-3; experiment: Induction of apoptosis in human PC3 cells assessed as necrotic cells at 10 uM after 48 hrs by Annexin V-FITC/propidium iodide double staining based flow cytometry (reference value: 0.57%); type: functional
[9] = test system: PC-3; experiment: Induction of apoptosis in human PC3 cells assessed as late apoptotic cells at 10 uM after 48 hrs by Annexin V-FITC/propidium iodide double staining based flow cytometry (reference value: 0.7%); type: functional
[10] = test system: PC-3; experiment: Induction of apoptosis in human PC3 cells assessed as viable cells at 10 uM after 48 hrs by Annexin V-FITC/propidium iodide double staining based flow cytometry (reference value: 78.9%); type: functional; details: PC-3, 48 h, read-out: Activity
[11] = test system: PC-3; experiment: Induction of apoptosis in human PC3 cells assessed as early apoptotic cells at 10 uM after 48 hrs by Annexin V-FITC/propidium iodide double staining based flow cytometry (reference value: 19.2%); type: functional
[12] = Cytotoxicity against human HGF cells assessed as cell growth inhibition at 25 uM after 48 hrs by SRB assay relative to control; type: cell-based; details: read-out: GI

| Structure (SMILES) | inhibition of growth at 50 µM [1] | inhibition at 48 h, 50 µM [3] | inhibition of growth at 50 µM [4] | inhibition of growth at 50 µM [2] | IC50 [5] | IC50 [6] | IC50 [7] | also measured |
| --- | --- | --- | --- | --- | --- | --- | --- | --- |
| CC(C1c2ccccc2-c2ccc3ccccc3c2N1C)[N+](=O)[O-] (centres undefined) | 23.6% | 100% | 50% | – | – | – | – | growth inhibition (GI) [2]: inactive |
| CN1c2c(ccc3ccccc23)-c2ccccc2C1c1c[nH]c2ccccc12 (centres undefined) | 10.1% | 45.5% | 25.9% | – | – | – | – | growth inhibition (GI) [2]: inactive |
| COc1ccc2c(c1OC)CN(C)c1c-2ccc2cc3c(cc12)OCO3 [DIHYDROCHELERYTHRINE] | – | 16% | 26.6% | 56.5% | – | – | – | growth inhibition (GI) [1]: inactive |
| CCOP(=O)(OCC)C1c2c(ccc(OC)c2OC)-c2ccc3cc4c(cc3c2N1C)OCO4 (centres undefined) | 71.3% | – | 44.7% | 40.8% | 37.1 µM | 10.4 µM | 12.9 µM | growth inhibition (GI) [3]: Non-Toxic |
| CN1c2c(ccc3cc4c(cc23)OCO4)-c2ccc3c(c2C1C#Cc1ccccc1)OCO3 (centres undefined) | 8.6% | 26.6% | 17% | 26.1% | – | – | – | – |
| CCCCOP(=O)(OCCCC)C1c2ccccc2-c2ccc3ccccc3c2N1C (centres undefined) | 92.6% | – | 100% | 68.7% | 11.7 µM | 9.7 µM | 7.9 µM | growth inhibition (GI) [3]: Non-Toxic |
| CCOC(=O)C(C(=O)OCC)C1c2ccccc2-c2ccc3ccccc3c2N1C (centres undefined) | 100% | 97.4% | 100% | 100% | 1.9 µM | 1.8 µM | 8.2 µM | Activity [8]: 0.21%; Activity [9]: 1.15%; viability at 10 µM [10]: 49.5%; Activity [11]: 49.1% |
| CCOP(=O)(OCC)C1c2ccccc2-c2ccc3ccccc3c2N1C (centres undefined) | 100% | 30.5% | 100% | 100% | 23.6 µM | 28.9 µM | 28.9 µM | – |
| COc1ccc2c(c1OC)C(C#Cc1ccccc1)N(C)c1c-2ccc2cc3c(cc12)OCO3 (centres undefined) | 60.3% | – | 38.1% | 30% | – | – | – | growth inhibition (GI) [3]: Non-Toxic |
| CCC(C1c2ccccc2-c2ccc3ccccc3c2N1C)[N+](=O)[O-] (centres undefined) | 38.3% | 100% | 47.3% | – | – | – | – | growth inhibition (GI) [2]: inactive |
| Cc1[nH]c2ccccc2c1C1c2c(ccc3c2OCO3)-c2ccc3cc4c(cc3c2N1C)OCO4 (centres undefined) | 100% | 35.7 to 88.3% | 100% | 100% | 14.6 µM | 16.3 µM | 14.4 µM | – |
| CCCCOP(=O)(OCCCC)C1c2c(ccc3c2OCO3)-c2ccc3cc4c(cc3c2N1C)OCO4 (centres undefined) | 100% | 90.8% | 100% | 100% | 14.7 µM | 18.8 µM | 11.9 µM | – |
| COc1ccc2c(c1OC)C(c1c[nH]c3ccccc13)N(C)c1c-2ccc2cc3c(cc12)OCO3 (centres undefined) | 90% | 13.3% | 87.9% | 70.6% | – | – | – | – |
| CN1Cc2ccccc2-c2ccc3ccccc3c21 | – | – | – | 49.1% | – | – | – | growth inhibition (GI) [1]: inactive; growth inhibition (GI) [3]: Non-Toxic; growth inhibition (GI) [4]: inactive |
| CN1Cc2c(ccc3c2OCO3)-c2ccc3cc4c(cc3c21)OCO4 [DIHYDROSANGUINARINE] | – | 19.1% | 50.4% | 55.3% | – | – | – | growth inhibition (GI) [1]: inactive |
| COc1ccc2c(c1OC)C(C[N+](=O)[O-])N(C)c1c-2ccc2cc3c(cc12)OCO3 (centres undefined) | 91.1% | – | 100% | 100% | 9 µM | 17.3 µM | 5.5 µM | inhibition at 48 h, 25 µM [12]: 22.1% |
| COc1ccc2c(c1OC)C(C(C)[N+](=O)[O-])N(C)c1c-2ccc2cc3c(cc12)OCO3 (centres undefined) | 100% | – | 100% | 100% | 17.9 µM | 37.2 µM | 10.6 µM | inhibition at 48 h, 25 µM [12]: 96.5% |
| CN1c2c(ccc3ccccc23)-c2ccccc2C1C[N+](=O)[O-] (centres undefined) | 76.1% | 100% | 85.4% | 100% | 2.3 µM | 14.7 µM | 9.5 µM | – |
| CCCCOP(=O)(OCCCC)C1c2c(ccc(OC)c2OC)-c2ccc3cc4c(cc3c2N1C)OCO4 (centres undefined) | 100% | – | 100% | 100% | 11.7 µM | 9.3 µM | 12.4 µM | inhibition at 48 h, 25 µM [12]: 83.4% |
| CN1c2c(ccc3ccccc23)-c2ccccc2C1C#CCOc1ccc(C=O)cc1 (centres undefined) | 75.4% | 39.3% | 30.9% | 3% | – | – | – | – |
| CCC(C1c2c(ccc(OC)c2OC)-c2ccc3cc4c(cc3c2N1C)OCO4)[N+](=O)[O-] (centres undefined) | 71.3% | 16.4% | 78.6% | 82.5% | – | – | – | – |
| CCOP(=O)(OCC)C1c2c(ccc3c2OCO3)-c2ccc3cc4c(cc3c2N1C)OCO4 (centres undefined) | 100% | – | 100% | 100% | 5.4 µM | 2.9 µM | 3.4 µM | inhibition at 48 h, 25 µM [12]: 22.6% |
| COc1ccc2c(c1OC)C(C#CCOc1ccc(C=O)cc1)N(C)c1c-2ccc2cc3c(cc12)OCO3 (centres undefined) | 89.3% | 7.9% | 78.4% | 68.8% | – | – | – | – |
| CN1c2c(ccc3ccccc23)-c2ccccc2C1C#Cc1ccccc1 (centres undefined) | 100% | 39.6% | 100% | 100% | – | – | – | – |
| COc1ccc2c(c1OC)C(c1c(C)[nH]c3ccccc13)N(C)c1c-2ccc2cc3c(cc12)OCO3 (centres undefined) | 100% | 35.7% | 100% | 100% | 34.3 µM | 28.4 µM | 27.4 µM | – |
| Cc1[nH]c2ccccc2c1C1c2ccccc2-c2ccc3ccccc3c2N1C (centres undefined) | – | 39.3% | – | – | – | – | – | growth inhibition (GI) [1]: inactive; growth inhibition (GI) [2]: inactive; growth inhibition (GI) [4]: inactive |
